Key:
[1] = Initial rate of hydrolysis in aqueous media at pH 7.4 and 37° C.; type: physicochemical
Method: For example, the initial rates of hydrolysis of 2-acetyl-1,2-bis(methylsulfonyl)-1-methylhydrazine (an acyl derivative shown in structural formula 5) and 1,2-bis(methylsulfonyl)-2-methoxycarbonyl-1-methylhydrazine (a carbamate compound shown in structural formula 6) were 0.3% and 0.007% per minute, respectively, at pH 7.4 and 37° C. [drawing 12]

proteinase K or serum = experiment: Effect of proteinase K or serum on rate of decomposition/activation; type: in vitro ADME
[2] = tested on: CHO-K1/dhfr^- cells transfected with NADPH:cytochrome P450 reductase cDNA; experiment: Colony-forming assay, CHO-K1/dhfr^- cells overexpressing NADPH:cytochrome P450 reductase; type: cell-based, Chinese hamster; details: 1 hr, hypoxic versus aerobic (FIG. 6)
Method: The ability of compounds 10h, 11, 12, and 14 to exert preferential toxicity to hypoxic cells was evaluated using the EMT6 mammary carcinoma by methodology described previously (Rockwell, S., Keyes, S. R., and Sartorelli, A. C. Rad. Res. 116: 100-113 (1988); Keyes, S. R., Rockwell, S., and Sartorelli, A. C. Cancer Res. 45: 213-216 (1985)). Briefly, exponentially growing monolayers of EMT6 (or CHO-K1/dhfr clone) were exposed to a continuously flowing 95% N2 /5% CO2 humidified atmosphere for 2 h to produce radiobiologic hypoxia. Parallel flasks were maintained similarly in humidified 95% air/5% CO2. Without breaking the hypoxia, cells were exposed to various concentrations of the test agent for 1 hr. Cell survival was then measured by colony formation. […]
(§1) The cytotoxicity of compound loh was evaluated in aerobic and hypoxic Chinese hamster ovary (CHO-K1/dhfr^-) cells transfected with and overexpressing cDNAs for NADPH:cytochrome P450 reductase (27-fold more than parental cells, FIG. 3) or DT-diaphorase (133-fold more than parental cells, FIG. 4), two reductases with the potential to activate compound 10h. […]
(§2) Compound 12 was evaluated for its ability to exert preferential toxicity to hypoxic EMT6 cells relative to their aerobic counterparts. […]

CHO-K1/dhfr^- cells = experiment: Colony-forming assay, aerobic and hypoxic CHO-K1/dhfr^- cells; type: cell-based, Chinese hamster; details: 1 hr (FIG. 6)
Method: (§3) The ability of compounds 10h, 11, 12, and 14 to exert preferential toxicity to hypoxic cells was evaluated using the EMT6 mammary carcinoma by methodology described previously (Rockwell, S., Keyes, S. R., and Sartorelli, A. C. Rad. Res. 116: 100-113 (1988); Keyes, S. R., Rockwell, S., and Sartorelli, A. C. Cancer Res. 45: 213-216 (1985)). Briefly, exponentially growing monolayers of EMT6 (or CHO-K1/dhfr clone) were exposed to a continuously flowing 95% N2 /5% CO2 humidified atmosphere for 2 h to produce radiobiologic hypoxia. Parallel flasks were maintained similarly in humidified 95% air/5% CO2. Without breaking the hypoxia, cells were exposed to various concentrations of the test agent for 1 hr. Cell survival was then measured by colony formation.
CHO-K1/dhfr cells were used to examine the role of the reductive enzymes NADPH:cytochrome P450 reductase and DT-diaphorase in the activation of compounds 10h and 12 in situ. Clones of CHO-K1/dhfr^- cells transfected with and overexpressing cDNAs for each of these enzymes were used for this purpose (Belcourt, M. F., Hodnick, W. F., Rockwell, S., and Sartorelli, A. C. Proc. Natl. Acad. Sci. USA 93: 456-460 (1996); Belcourt, M. F., Hodnick, W. F., Rockwell, S., and Sartorelli, A. C. Biochem. Pharmacol. 51: 1669-1678 (1996)).
as §1, with “10h. In FIGS. 3 and 4, points are means of duplicate determinations.” for “10h.”
as §2

[3] = tested on: EMT6 mammary carcinoma cells; experiment: Colony-forming assay, EMT6 cells under hypoxic or aerobic conditions; type: cell-based, mouse; details: 50 μM, 1 hr exposure
Method: as §3
The cytotoxicity of compound 10h was evaluated against EMT6 mouse mammary carcinoma cells in vitro under aerobic and hypoxic conditions using the colony-forming assay described above. FIG. 1 depicts the survival of EMT6 cells exposed to various concentrations of compound 10h for 1 hr under hypoxic or aerobic conditions in vitro. Points are the geometric means of two or more independent determinations of surviving fractions. The SEMs are shown where n≥3 and where the error is larger than the point size. Open triangles represent aerobic data points and filled triangles represent hypoxic data points.
Compound 12 was evaluated for its ability to exert preferential toxicity to hypoxic EMT6 cells relative to their aerobic counterparts. […] Points are geometric means of two or more independent determinations of surviving fractions. The SEMs are shown where n≥3 and where the error is larger than the point size. Open triangles are aerobic data points, and filled triangles are hypoxic data points. […] Points are means of duplicate determinations. Open triangles are parental-aerobic; filled triangles are parental-hypoxic; open circles are NADPH:cytochrome P450 reductase-transfected-aerobic; filled circles are NADPH:cytochrome P450 reductase-transfected-hypoxic.

L1210 leukemia = details: single intraperitoneal dose; cited from earlier work
tumor = details: in vivo; cited from earlier work
host animals = details: in vivo; cited from earlier work
GSH/GST = experiment: Relative rate of activation by GSH/GST in vitro; type: in vitro ADME; details: 1 mM compound, GSH 1 mM, GST 400 μg/ml; compound 6 = 100
Method: When R^3 is a methyl group, the rate of activation by GSH/GST is highly dependent upon the nature of the 2-alkoxy- or 2-aryloxycarbonyl moiety at the R^4 position.
The rate of activation of 2-(2-bromoethoxy)carbonyl-1,2-bis(methylsulfonyl)-1-methylhydrazine (compound 8) was elevated approximately 18-fold in vitro by the presence of GSH (1 mM) and GST (400 μg/ml), compared to buffer alone.

**Q.** Which results are given for `CC(=O)N(N(C)S(C)(=O)=O)S(C)(=O)=O` [Compound 5, 2-acetyl-1,2-bis(methylsulfonyl)-1-methylhydrazine, reference compound]?
**A.** initial rate of hydrolysis [1]: 0.3 % per minute; enhancement of rate of activation by proteinase K or serum (proteinase K or serum; levels of proteinase K or serum): ~10 fold

**Q.** What does the source list for `COc1cc(COC(=O)N(N(CCCl)S(C)(=O)=O)S(C)(=O)=O)c([N+](=O)[O-])cc1OC` [Compound 12, 1,2-Bis(methylsulfonyl)-1-(2-chloroethyl)-2-[(4,5-dimethoxy-2-nitrobenzyloxy)carbonyl]hydrazine]?
**A.** cytotoxicity to hypoxic versus aerobic cells overexpressing NADPH-cytochrome P450 reductase [2]: > 3000 times; cytotoxicity to aerobic and hypoxic CHO-K1/dhfr^- cells (in words) (CHO-K1/dhfr^- cells): results similar to those described for compound 10h; toxicity to aerobic EMT6 cells (in words) ([3]; aerobic (FIG. 5)): relatively minor toxicity; log reduction at 50 µM ([3]; Mus musculus, EMT6, hypoxic (FIG. 5), read-out: kill of hypoxic EMT6 cells): > 3

**Q.** Which results are given for `CS(=O)(=O)NN(CCCl)S(C)(=O)=O` [Compound 2, 1,2-bis(methylsulfonyl)-1-(2-chloroethyl)hydrazine]?
**A.** cures of mice bearing the L1210 leukemia (L1210 leukemia): 40%; active dosage range (in words) (tumor): active only over a narrow dosage range; antitumor/antineoplastic activity (in words) (tumor): most active compound of this class; host toxicity (in words) (host animals): considerable host toxicity

**Q.** Which “initial rate of hydrolysis” value [1] does the source give for `COC(=O)N(N(C)S(C)(=O)=O)S(C)(=O)=O` [Compound 6, 1,2-Bis(methylsulfonyl)-2-(methoxycarbonyl)-1-methylhydrazine] here?
**A.** 0.007 % per minute

**Q.** What about the “increase of rate of decomposition by proteinase K or serum” value (proteinase K or serum; levels that enhanced activation of compound 5 almost 10-fold) of the same molecule?
**A.** not appreciably increased

**Q.** What about the “Relative Activation Rate by GSH/GST” value (GSH/GST) of the same molecule?
**A.** 100

From patent US6040338A, “N,n-bis(sulfonyl)hydrazines useful as antineoplastic agents” (Yale University, priority 1997, dated 2000)
